In the supplement of paper PMC10307832:

What was measured:
Test in all cases: relative viability (nuclei count vs DMSO), 5 days (fraction); higher = more cells survive
RO-3306 + Pictilisib = compound: C1=CC2=C(C=CC(=C2)C=C3C(=O)NC(=NCC4=CC=CS4)S3)N=C1 [RO-3306] + CS(=O)(=O)N1CCN(Cc2cc3nc(-c4cccc5[nH]ncc45)nc(N4CCOCC4)c3s2)CC1 [Pictilisib] (partner 1 µM)
How it was run: (§1)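 Relative viability divides the nuclei count in treated wells by that in vehicle wells. Lung cancer cell lines were seeded in 1536-well plates, dosed by pin tool the next day, and fixed and stained after 5 days in one step with final 0.05% Triton X-100, 1% formaldehyde and 1 ug/ml Hoechst. Dosing was a single drug or a fixed anchor-drug dose plus five library-drug doses (not always all listed) in √10 steps, and values are medians of duplicate plates imaged at 4×.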

RO-3306 + Linsitinib = compound: C1=CC2=C(C=CC(=C2)C=C3C(=O)NC(=NCC4=CC=CS4)S3)N=C1 [RO-3306] + C[C@]1(O)C[C@@H](c2nc(-c3ccc4ccc(-c5ccccc5)nc4c3)c3c(N)nccn32)C1 [Linsitinib] (partner 1 µM)
How it was run: as §1

[1] = compound: O=S(=O)(c1ccccc1)N(CC(F)(F)F)c1ccc(C(O)(C(F)(F)F)C(F)(F)F)cc1 + COc1cc2c(Oc3ccc(NC(=O)C4(C(=O)Nc5ccc(F)cc5)CC4)cc3F)ccnc2cc1OCCCN1CCOCC1 [Foretinib] (partner 0.25 µM)
How it was run: as §1

[2] = compound: O=S(=O)(c1ccccc1)N(CC(F)(F)F)c1ccc(C(O)(C(F)(F)F)C(F)(F)F)cc1 + COc1cccc2cc(-c3nc([C@H]4CC[C@H](C(=O)O)CC4)n4ncnc(N)c34)[nH]c12 [OSI-027] (partner 0.5 µM)
How it was run: as §1

[3] = compound: O=S(=O)(c1ccccc1)N(CC(F)(F)F)c1ccc(C(O)(C(F)(F)F)C(F)(F)F)cc1 + N=C(N)NC(=N)NCCc1ccccc1 [Phenformin] (partner 250 µM)
How it was run: as §1

Cell Line	relative viability (RO-3306 + Pictilisib; first compound 0.01 µM)	relative viability (RO-3306 + Pictilisib; first compound 0.03162 µM)	relative viability (RO-3306 + Pictilisib; first compound 0.1 µM)	relative viability (RO-3306 + Pictilisib; first compound 0.3162 µM)	relative viability (RO-3306 + Pictilisib; first compound 1 µM)	relative viability (RO-3306 + Linsitinib; first compound 0.01 µM)	relative viability (RO-3306 + Linsitinib; first compound 0.03162 µM)	relative viability (RO-3306 + Linsitinib; first compound 0.1 µM)	relative viability (RO-3306 + Linsitinib; first compound 0.3162 µM)	relative viability (RO-3306 + Linsitinib; first compound 1 µM)	relative viability ([1]; first compound 0.8 µM)	relative viability ([1]; first compound 2.53 µM)	relative viability ([1]; first compound 8 µM)	relative viability ([2]; first compound 0.8 µM)	relative viability ([2]; first compound 2.53 µM)	relative viability ([2]; first compound 8 µM)	relative viability ([3]; first compound 0.8 µM)	relative viability ([3]; first compound 2.53 µM)	relative viability ([3]; first compound 8 µM)
NCI-H1734	0.53	0.435	0.468	0.452	0.447	1.05	0.578	0.823	0.891	0.836	1.07	0.868	0.822	0.708	0.55	0.637	0.562	0.45	0.354
LOU-NH91	0.512	0.528	0.522	0.533	0.406	0.982	0.899	0.982	0.864	0.899	0.999	0.884	0.937	0.722	0.718	0.79	0.607	0.562	0.661
LCLC-103H	0.461	0.556	0.561	0.655	0.608	1.03	0.934	1.16	1.05	1.05	0.973	0.758	0.81	0.507	0.505	0.439	0.367	0.297	0.318
NCI-H522														0.615	0.754	0.903	0.721	0.736	0.727
NCI-H1651	0.598	0.359	0.574	0.601	0.634	0.956	0.927	0.922	1.18	0.977	0.974	0.795	0.68	0.742	0.793	0.703	0.358	0.292	0.268
NCI-H23	0.507	0.468	0.433	0.451	0.433	0.774	0.443	0.633	0.514	0.569	1.02	1.16	1	0.62	0.711	0.594	0.828	0.743	0.699
NCI-H322M	0.493	0.486	0.485	0.556	0.585	0.978	0.709	0.923	1.02	1.03	1.08	0.915	0.953	0.61	0.501	0.506	0.882	0.812	0.819
HCC-44	0.581	0.524	0.619	0.689	0.557	0.718	0.674	0.68	0.663	0.693					0.482	0.6	0.198	0.185	0.185
NCI-H1648														0.248	0.254	0.185			
UMC-11	1.16	0.729	0.811	0.859	0.617	0.998	0.783	1.08	1.08	1.03	1.16	1.12	1.08	0.491	0.444	0.526	0.315	0.295	0.315
NCI-H596	0.345	0.394	0.375	0.372	0.287	0.954	0.903	1.15	1.04	1.04	0.876	0.711	0.887	0.71	0.6	0.716	0.805	0.717	0.667
A549	0.551	0.485	0.477	0.504	0.323	0.762	0.305	0.622	0.69	0.623	0.962	0.944	0.752				0.17	0.159	0.186
NCI-H1792	0.288		0.288	0.287	0.224	0.728		0.569	0.604	0.31				0.688	0.717	0.458	0.305	0.267	0.204
NCI-H1299	0.873	0.854	0.833	0.796	0.649	1.1	0.913	1.03	1.12	1.08	1.1	1.07	1						
Calu-6	1.1	0.97	0.934	0.866	0.91	1.1	0.695	0.978	0.997	1.15	0.822	0.809	0.768						
NCI-H2170	0.292	0.303	0.305	0.312	0.334						1.02	0.88	0.837	0.653	0.663	0.685	0.379	0.348	0.344
NCI-H2342											1.15	1.03	0.951	0.646	0.626	0.58	0.606	0.599	0.48
NCI-H1650	0.491	0.503	0.48	0.583	0.414						1.33	0.904	1.28	0.58	0.542	0.603	0.347	0.366	0.384
SW 900											0.752	0.784	0.82	0.52	0.519	0.591	0.649	0.34	0.437
EBC-1	0.454	0.327	0.397	0.448	0.286	1.03	0.556	0.977	1.15	1.05	0.0993	0.114	0.126						
ChaGo-K-1	0.692	0.701	0.449	0.69	0.49						1.04	0.84	0.818	0.687	0.522	0.6	0.517	0.52	0.474
